Laboratory results from patent publication US8822430B2 (Gilead Sciences, Inc., priority 2009, dated 2014).

tested on: HCV 1b RLuc cells (dicistronic genotype 1b Con1 replicon); test: Renilla luciferase (RLuc)-based HCV replicon reporter assay; type: cell-based, HCV genotype 1b; conditions: Hepatitis C virus, 72 h, HCV 1b RLuc replicon, 72 hours; read-out: Activity (antiviral potency [EC50])
Procedure, shortened: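 EC50 values were calculated by non-linear regression of Renilla luciferase signal from lysed cells after 72 h of compound exposure. Cells harboured a genotype 1b Con1 dicistronic replicon encoding RLuc. Compounds were serially diluted in DMSO from 10 mM stocks into culture media.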

SMILES	EC50 [nM]
COC(=O)N[C@H](C(=O)N1CN(C(=O)OC(C)(C)C)C[C@H]1C(=O)NCC(=O)c1ccc(-c2ccc(-c3cnc([C@@H]4CCCN4C(=O)[C@@H](NC(=O)OC)C(C)C)[nH]3)cc2)cc1)C(C)C	3.41
COC(=O)N[C@H](C(=O)N1CCC[C@H]1c1ncc(-c2ccc3c(c2)oc2cc(-c4ccc5nc([C@@H]6CCCN6C(=O)[C@@H](NC(=O)OC)C(C)C)[nH]c5c4)ccc23)[nH]1)C(C)C	0.0075
COC(=O)N[C@H](C(=O)N1CCC[C@H]1c1ncc(-c2ccc(-c3ccc(-c4cnc([C@@H]5CCCN5C(=O)[C@@H](NC(=O)OC)C(C)C)[nH]4)c(C#N)c3)cc2)[nH]1)C(C)C	0.0192
COC(=O)N[C@H](C(=O)N1CCC[C@H]1c1ncc(-c2ccc(-c3ccc(-c4cnc(CN5CCC[C@H](N)C5=O)[nH]4)cc3)cc2)[nH]1)C(C)C	4.8
COC(=O)N[C@H](C(=O)N1CCC[C@H]1c1ncc(-c2ccc3cc(-c4ccc(-c5cnc([C@@H]6[C@H]7CC[C@H](C7)N6C(=O)[C@@H](NC(=O)OC)C(C)C)[nH]5)cc4)ccc3c2)[nH]1)C(C)C	0.006
COC(=O)N[C@H](C(=O)N1CCC[C@H]1c1ncc(-c2ccc(-c3ccc(-c4cnc(CN5CCC[C@H](NC(=O)OC(C)(C)C)C5=O)[nH]4)cc3)cc2)[nH]1)C(C)C	0.058
COC(=O)N[C@@H](C)C(=O)N1CCC[C@H]1c1ncc(-c2ccc(-c3ccc4cc(-c5cnc([C@@H]6[C@H]7CC[C@H](C7)N6C(=O)[C@@H](NC(=O)OC)C(C)C)[nH]5)ccc4c3)cc2)[nH]1	0.034
COC(=O)N[C@H](C(=O)N1CCC[C@H]1c1ncc(-c2ccc(-c3ccc4cc(-c5cnc([C@@H]6CCCN6C(=O)[C@@H](NC(=O)OC)C6CCOCC6)[nH]5)ccc4c3)cc2)[nH]1)C(C)C	0.0193
COC(=O)N[C@H](C(=O)N1CCC[C@H]1c1ncc(-c2ccc3c(c2)COc2cc(-c4cnc([C@@H]5CCCN5C(=O)[C@@H](NC(=O)OC)C(C)C)[nH]4)ccc2-3)[nH]1)C(C)C	0.0131
COC(=O)NC(C(=O)N1CCC[C@H]1c1ncc(-c2ccc(-c3ccc(-c4cnc([C@@H]5CCCN5C(=O)[C@@H](NC(=O)OC)C(C)C)[nH]4)cc3)c3ccccc23)[nH]1)C(C)C (some centres unmarked)	0.0067
COC(=O)N[C@H](C(=O)N1CCC[C@H]1c1ncc(-c2ccc(-c3ccc4cc(-c5cnc([C@@H]6[C@H]7CC[C@H](C7)N6C(=O)[C@@H](NC(=O)OC)C(C)C)[nH]5)ccc4c3)cc2)[nH]1)C(C)C	0.011
COC(=O)N[C@H](C(=O)N1CCC[C@H]1c1ncc(-c2ccc3cc(-c4ccc(-c5cnc([C@@H]6CCCN6C(=O)[C@@H](NC(=O)OC)C6CCCCC6)[nH]5)cc4)ccc3c2)[nH]1)C(C)C	0.0092
COC(=O)N[C@H](C(=O)N1CCC[C@H]1c1ncc(-c2ccc3cc(-c4ccc(-c5cnc([C@@H]6CCCN6C(=O)[C@H](NC(=O)OC)C6CCCCC6)[nH]5)cc4)ccc3c2)[nH]1)C(C)C	0.0972
COC(=O)N[C@H](C(=O)N1C[C@@H](C#N)C[C@H]1c1ncc(-c2ccc(C#Cc3ccc(-c4cnc([C@@H]5CC6(CC6)CN5C(=O)[C@@H](NC(=O)OC)C(C)C)[nH]4)cc3)cc2)[nH]1)C(C)C	0.0149
COC(=O)N[C@@H](C(=O)N1CCC[C@@H]1c1ncc(-c2ccc3c(c2)S(=O)(=O)c2cc(-c4cnc([C@H]5CCCN5C(=O)[C@H](NC(=O)OC)C(C)C)[nH]4)ccc2-3)[nH]1)C(C)C	0.0535
COC(=O)N[C@H](C(=O)N1C[C@@H](C#N)C[C@H]1c1ncc(-c2ccc(-c3ccc4cc(-c5cnc([C@@H]6CC7(CC7)CN6C(=O)[C@@H](NC(=O)OC)C(C)C)[nH]5)ccc4c3)cc2)[nH]1)C(C)C	0.0069
COC(=O)N[C@H](C(=O)N1CCC[C@H]1c1ncc(-c2ccc(-c3ccc(-c4cnc([C@@H]5CN(C(C)=O)CN5C(=O)[C@@H](NC(=O)OC)C(C)C)[nH]4)cc3)cc2)[nH]1)C(C)C	0.0852
COC(=O)N[C@H](C(=O)N1CCC[C@H]1c1ncc(C#Cc2ccc(C#Cc3cnc([C@@H]4CCCN4C(=O)[C@@H](NC(=O)OC)C(C)C)[nH]3)cc2)[nH]1)C(C)C	0.0474
COC(=O)N[C@H](C(=O)N1CCC[C@H]1c1ncc(-c2ccc3c4ccc(-c5cnc([C@@H]6CCCN6C(=O)[C@@H](NC(=O)OC)C(C)C)[nH]5)cc4[s+]([O-])c3c2)[nH]1)C(C)C	0.0322
COC(=O)N[C@H](C(=O)N1C[C@@H](C#N)C[C@H]1c1ncc(-c2ccc3c(c2)C(F)(F)c2cc(-c4ccc5nc([C@@H]6CC7(CC7)CN6C(=O)[C@@H](NC(=O)OC)C(C)C)[nH]c5c4)ccc2-3)[nH]1)C(C)C	0.0064
COC(=O)N[C@H](C(=O)N1CCC[C@H]1c1ncc(-c2ccc3cc(-c4ccc(-c5cnc([C@@H]6CCCN6C(=O)[C@@H](NC(=O)OC)C6CCOCC6)[nH]5)cc4)ccc3c2)[nH]1)C1CCCCC1	0.0116
C=C1C[C@@H](c2ncc(-c3ccc(-c4ccc5cc(-c6cnc([C@@H]7CCCN7C(=O)[C@@H](NC(=O)OC)C(C)C)[nH]6)ccc5c4)cc3)[nH]2)N(C(=O)[C@@H](NC(=O)OC)C(C)C)C1	0.0113

SMILES	EC50 [nM]
COC(=O)N[C@H](C(=O)N1CCC[C@H]1c1ncc(-c2ccc(-c3ccc(-c4ccc5nc([C@@H]6[C@H]7CC[C@H](C7)N6C(=O)[C@@H](NC(=O)OC)C(C)C)[nH]c5c4)cc3)cc2)[nH]1)C(C)C	0.006
COC(=O)NC(C(=O)N1CCS[C@H]1c1nc(-c2cc3c(OC)c4sc(-c5c[nH]c([C@@H]6SCCN6C(=O)C(NC(=O)OC)c6ccccc6)n5)cc4c(OC)c3s2)c[nH]1)c1ccccc1 (some centres unmarked)	4.37
COC(=O)N[C@H](C(=O)N1CCC[C@H]1c1ncc(-c2ccc3cc(-c4ccc(-c5cnc([C@@H]6CCCN6C(=O)[C@H](NC(=O)OC)c6ccc(F)cc6)[nH]5)cc4)ccc3c2)[nH]1)C(C)C	0.0142
COC(=O)N[C@H](C(=O)N1CC[C@H]1c1nc2ccc(-c3ccc(-c4ccc(-c5cnc([C@@H]6CCCN6C(=O)[C@H](NC(=O)OC)c6ccccc6)[nH]5)cc4)cc3)cc2[nH]1)C(C)C	0.0195
COC(=O)N[C@H](C(=O)N1CCC[C@H]1c1ncc(-c2cc3c(C)c4sc(-c5cnc([C@@H]6CCCN6C(=O)[C@@H](NC(=O)OC)C6CCOCC6)[nH]5)cc4c(C)c3s2)[nH]1)C1CCOCC1	0.106
CN[C@H](C(=O)N1CCC[C@H]1c1nc2ccc(-c3ccc(-c4ccc(-c5ccc6nc([C@@H]7CCCN7C(=O)[C@@H](NC(=O)OC)C(C)C)[nH]c6c5)cc4)cc3)cc2[nH]1)C(C)C	0.0441
COC(=O)N[C@H](C(=O)N1CC2(CC2)C[C@H]1c1ncc(-c2ccc(-c3ccc(-c4ccc5nc([C@@H]6[C@H]7CC[C@H](C7)N6C(=O)[C@@H](NC(=O)OC)C(C)C)[nH]c5c4)cc3)cc2)[nH]1)C(C)C	0.0058
COC(=O)N[C@H](C(=O)N1CCC[C@H]1c1ncc(-c2ccc(-c3ccc4cc(-c5cnc([C@@H]6CCCN6C(=O)[C@@H](NC(=O)OC)C(C)C)[nH]5)ccc4c3)cc2)[nH]1)c1ccccc1	0.0272
COC(=O)N[C@@H](CCOC(F)F)C(=O)N1CC2(CC2)C[C@H]1c1ncc(-c2ccc3cc(-c4ccc(-c5cnc([C@@H]6[C@H]7CC[C@H](C7)N6C(=O)[C@@H](NC(=O)OC)C(C)C)[nH]5)cc4)ccc3c2)[nH]1	0.0114
COC(=O)N[C@H](C(=O)N1CCC[C@H]1c1ncc(-c2ccc3cc(-c4ccc(-c5cnc([C@@H]6CCCN6C(=O)[C@H](O)c6ccccc6)[nH]5)cc4)ccc3c2)[nH]1)C(C)C	0.0097
COC(=O)N[C@H](C(=O)N1C[C@@H](C#N)C[C@H]1c1ncc(-c2ccc3cc(-c4ccc(-c5cnc([C@@H]6CC7(CC7)CN6C(=O)[C@@H](NC(=O)OC)C(C)C)[nH]5)cc4)ccc3c2)[nH]1)C(C)C	0.0169
COC(=O)N[C@H](C(=O)N1CCC[C@H]1c1ncc(-c2ccc3c(c2)C(F)(F)c2cc(-c4ccc5nc([C@@H]6CCCN6C(=O)[C@@H](NC(=O)OC)C(C)C)[nH]c5c4)ccc2-3)[nH]1)C(C)C	< 0.0023
COC(=O)N[C@H](C(=O)N1CCC[C@H]1c1ncc(-c2ccc3c(c2)CCc2cc(-c4ccc5nc([C@@H]6[C@H]7CC[C@H](C7)N6C(=O)[C@@H](NC(=O)OC)C(C)C)[nH]c5c4)ccc2-3)[nH]1)C(C)C	0.0054
COC(=O)N[C@H](C(=O)N1CCC[C@H]1c1ncc(-c2ccc(C#CC#Cc3ccc(-c4cnc([C@@H]5CCCN5C(=O)[C@@H](NC(=O)OC)C(C)C)[nH]4)cc3)cc2)[nH]1)C(C)C	0.384
COC(=O)N[C@H](C(=O)N1CCC[C@H]1c1nc2ccc(-c3ccc4cc(-c5ccc6nc([C@@H]7CCCN7C(=O)[C@@H](NC(=O)OC)C(C)C)[nH]c6c5)ccc4c3)cc2[nH]1)C(C)C	< 0.0041
CC[C@H](NC(=O)OC)C(=O)N1C[C@@H](C#N)C[C@H]1c1ncc(-c2ccc3cc(-c4ccc(-c5cnc([C@@H]6CC7(CC7)CN6C(=O)[C@@H](NC(=O)OC)C(C)C)[nH]5)cc4)ccc3c2)[nH]1	0.0155
COC(=O)N[C@H](C(=O)N1CCC[C@H]1c1ncc(-c2ccc3cc(-c4ccc(-c5cnc([C@@H]6C[C@H](C#N)CN6C(=O)[C@@H](NC(=O)OC)C(C)C)[nH]5)cc4)ccc3c2)[nH]1)C(C)C	0.0067
COC(=O)N[C@H](C(=O)N1CCC[C@H]1C(=O)NCc1ccc(-c2ccc(-c3cnc([C@@H]4CCCN4C(=O)[C@@H](NC(=O)OC)C(C)C)[nH]3)cc2)cc1)C(C)C	1.4
COC(=O)N[C@@H](CCOC(F)F)C(=O)N1CCC[C@H]1c1ncc(-c2ccc(-c3ccc4cc(-c5cnc([C@@H]6CC7(CC7)CN6C(=O)[C@@H](NC(=O)OC)C(C)C)[nH]5)ccc4c3)cc2)[nH]1	0.0052
COC(=O)N[C@H](C(=O)N1CCC[C@H]1c1ncc(-c2ccc3c(c2)COCc2cc(-c4cnc([C@@H]5CCCN5C(=O)[C@@H](NC(=O)OC)C(C)C)[nH]4)ccc2-3)[nH]1)C(C)C	0.0327
COC(=O)N[C@H](C(=O)N1CCC[C@H]1c1ncc(-c2ccc3cc(-c4ccc(-c5cnc([C@@H]6CCCN6C(=O)[C@H](NC(=O)OC)c6ccsc6)[nH]5)cc4)ccc3c2)[nH]1)C(C)C	0.0157
COC(=O)N[C@H](C(=O)N1CCC[C@H]1c1ncc(-c2ccc(-c3ccc(-c4ccc5nc([C@@H]6CCN6C(=O)[C@@H](NC(=O)OC)C(C)C)[nH]c5c4)cc3)cc2)[nH]1)C(C)C	0.0282
